From PMC8343220, “The selectivity of α‐adrenoceptor agonists for the human α1A, α1B, and α1D‐adrenoceptors” (Pharmacology Research & Perspectives, 2021)
Read-outs that look alike come from different tables or passages of the source.

Tests used:
human α1A‐adrenoceptor [1] = target: T1, human α1A‐adrenoceptor (Homo sapiens, UniProt P35348); assay: Intracellular free calcium mobilization, CHO‐α1A cells; assay type: cell-based
T1 construct: expressed in transfected cells; host or cells: CHO-K1
T1 sequence (P35348 1-466): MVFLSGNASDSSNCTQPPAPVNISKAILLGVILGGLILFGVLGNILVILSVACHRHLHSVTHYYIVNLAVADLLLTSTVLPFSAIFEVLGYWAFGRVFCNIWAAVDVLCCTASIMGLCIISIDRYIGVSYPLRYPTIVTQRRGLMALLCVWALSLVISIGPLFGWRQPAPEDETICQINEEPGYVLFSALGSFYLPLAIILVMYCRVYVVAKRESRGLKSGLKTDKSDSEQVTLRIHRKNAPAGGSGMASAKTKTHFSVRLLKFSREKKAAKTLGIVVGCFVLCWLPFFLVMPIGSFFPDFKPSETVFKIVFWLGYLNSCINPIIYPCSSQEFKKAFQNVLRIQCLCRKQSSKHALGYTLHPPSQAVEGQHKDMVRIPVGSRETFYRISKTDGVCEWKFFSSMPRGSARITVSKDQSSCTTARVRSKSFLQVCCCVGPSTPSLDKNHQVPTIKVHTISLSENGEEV

human α1B‐adrenoceptor [2] = target: T2, human α1B‐adrenoceptor (Homo sapiens, UniProt P35368); assay: Intracellular free calcium mobilization, CHO‐α1B cells; assay type: cell-based
T2 construct: expressed in transfected cells; host or cells: CHO-K1
T2 sequence (P35368 1-520): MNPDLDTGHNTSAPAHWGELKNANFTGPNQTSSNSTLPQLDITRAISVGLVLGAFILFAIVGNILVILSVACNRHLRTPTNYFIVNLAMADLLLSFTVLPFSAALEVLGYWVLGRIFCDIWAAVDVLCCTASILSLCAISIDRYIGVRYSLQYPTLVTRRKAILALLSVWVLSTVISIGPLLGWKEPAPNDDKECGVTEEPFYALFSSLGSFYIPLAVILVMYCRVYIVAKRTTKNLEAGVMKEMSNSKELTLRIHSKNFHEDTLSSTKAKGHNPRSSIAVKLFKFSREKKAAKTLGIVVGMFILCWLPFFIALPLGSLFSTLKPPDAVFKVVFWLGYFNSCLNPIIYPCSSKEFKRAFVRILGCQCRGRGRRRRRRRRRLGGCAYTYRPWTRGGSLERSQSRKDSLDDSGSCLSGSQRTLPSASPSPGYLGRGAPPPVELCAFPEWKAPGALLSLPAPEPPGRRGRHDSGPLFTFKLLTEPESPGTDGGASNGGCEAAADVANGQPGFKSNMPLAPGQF

[3] = target: T3, human α1D‐adrenoceptor (full length) (Homo sapiens, UniProt P25100); assay: Intracellular free calcium mobilization, CHO‐α1D cells; assay type: cell-based
T3 construct: human α1D‐adrenoceptor (full length) were used; expressed in transfected cells; host or cells: CHO-K1
T3 sequence (P25100 1-572): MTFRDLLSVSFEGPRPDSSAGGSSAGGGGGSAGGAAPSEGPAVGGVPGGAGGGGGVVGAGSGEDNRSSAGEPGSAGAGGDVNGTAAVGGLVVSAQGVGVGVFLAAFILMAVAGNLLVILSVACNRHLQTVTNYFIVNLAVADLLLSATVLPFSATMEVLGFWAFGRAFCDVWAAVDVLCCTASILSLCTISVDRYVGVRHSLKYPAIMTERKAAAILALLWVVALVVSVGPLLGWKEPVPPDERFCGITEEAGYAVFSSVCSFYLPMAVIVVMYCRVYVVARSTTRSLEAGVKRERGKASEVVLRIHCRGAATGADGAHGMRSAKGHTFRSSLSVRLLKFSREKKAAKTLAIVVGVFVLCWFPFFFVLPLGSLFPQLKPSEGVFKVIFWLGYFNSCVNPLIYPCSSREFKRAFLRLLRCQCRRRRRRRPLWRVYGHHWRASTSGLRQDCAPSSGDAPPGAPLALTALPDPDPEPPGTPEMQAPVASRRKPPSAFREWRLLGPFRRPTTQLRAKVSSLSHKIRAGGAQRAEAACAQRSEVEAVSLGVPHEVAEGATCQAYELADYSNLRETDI

human α1A‐adrenoceptor [4] = target: T1, human α1A‐adrenoceptor; assay: ERK1/2‐phosphorylation (Surefire Alphascreen), CHO‐α1A cells; assay type: cell-based
human α1B‐adrenoceptor [5] = target: T2, human α1B‐adrenoceptor; assay: ERK1/2‐phosphorylation (Surefire Alphascreen), CHO‐α1B cells; assay type: cell-based
[6] = target: T3, human α1D‐adrenoceptor (full length); assay: ERK1/2‐phosphorylation (Surefire Alphascreen), CHO‐α1D cells; assay type: cell-based
[7] = system: parental CHO cell line without any transfected receptors; assay: ERK1/2‐phosphorylation, parent CHO cells without transfected receptors; assay type: cell-based, Chinese hamster; conditions: CHO cells without transfected receptors; maximal response as % of PDBu (10μM) response; mean ± s.e.m.
human α1A‐adrenoceptor [8] = target: T1, human α1A‐adrenoceptor; assay: ^3H‐cAMP accumulation, CHO‐α1A cells; assay type: cell-based; conditions: CHO‐α1A cells; for cAMP accumulation % forskolin: % of 10 µM forskolin response
human α1B‐adrenoceptor [9] = target: T2, human α1B‐adrenoceptor; assay: ^3H‐cAMP accumulation, CHO‐α1B cells; assay type: cell-based; conditions: CHO‐α1B cells; for cAMP accumulation % forskolin: % forskolin maximum response
[10] = system: parental CHO cell line without any transfected receptors; assay: Forskolin‐stimulated cAMP accumulation, parent CHO cells without transfected receptors; assay type: cell-based, Chinese hamster; conditions: CHO cells without transfected receptors; in presence of forskolin
human α1A‐adrenoceptor [11] = target: T1, human α1A‐adrenoceptor; assay: ^3H‐prazosin whole‐cell radioligand binding, CHO‐α1A cells
human α1B‐adrenoceptor [12] = target: T2, human α1B‐adrenoceptor; assay: ^3H‐prazosin whole‐cell radioligand binding, CHO‐α1B cells
[13] = target: T3, human α1D‐adrenoceptor (full length); assay: ^3H‐prazosin whole‐cell radioligand binding, CHO‐α1D cells
human α1A‐adrenoceptor [14] = target: T1, human α1A‐adrenoceptor; assay: ^3H‐cAMP accumulation in the presence of 10 μM forskolin, CHO‐α1A cells; assay type: cell-based
human α1B‐adrenoceptor [15] = target: T2, human α1B‐adrenoceptor; assay: ^3H‐cAMP accumulation in the presence of 10 μM forskolin, CHO‐α1B cells; assay type: cell-based; conditions: CHO‐α1B cells; in presence of forskolin
[16] = CHO‐α1A cells, maximal response as % of 10 µM ionomycin
[17] = CHO‐α1B cells, maximal response as % of 10 µM ionomycin response
[18] = CHO‐α1A cells, % of 10 µM PDBu, ^a bi‐phasic: initial stimulatory part
[19] = CHO‐α1B cells, maximal response as % PDBu response, for bi‐phasic responses the initial stimulatory part
[20] = CHO‐α1D cells, response at 100 µM ligand (no EC50 given)

Structure (SMILES)	Intracellular calcium release % ionomycin (human α1A‐adrenoceptor [1]; [16]) [%]	Intracellular calcium release % ionomycin (human α1B‐adrenoceptor [2]; [17]) [%]	ERK1/2‐phosphorylation % PDBu (human α1A‐adrenoceptor [4]; [18]) [%]	ERK1/2‐phosphorylation % PDBu (human α1B‐adrenoceptor [5]; [19]) [%]	ERK1/2-phosphorylation % PDBu [7]	cAMP accumulation % forskolin (human α1A‐adrenoceptor [8]) [%]	cAMP accumulation % forskolin (human α1B‐adrenoceptor [9]) [%]	cAMP accumulation (in presence of forskolin) Log EC50 [10]	Intracellular calcium release % ionomycin (human α1A‐adrenoceptor [1]) [%]	Intracellular calcium release % ionomycin (human α1B‐adrenoceptor [2]) [%]	Intracellular calcium release % ionomycin [3]	ERK1/2‐phosphorylation % PDBu (human α1A‐adrenoceptor [4]) [%]	ERK1/2‐phosphorylation % PDBu (human α1B‐adrenoceptor [5]) [%]	ERK1/2‐phosphorylation % PDBu [6]	other results
NC[C@H](O)c1ccc(O)c(O)c1 [Noradrenaline]	62.2 ± 3.0	62.5 ± 1.2	84.2 ± 8.4	75.0 ± 8.8	No response	167.3 ± 13.3	155.5 ± 7.4	No response							Intracellular calcium release % ionomycin ([3]; CHO‐α1D cells, maximal response as % of 10 µM ionomycin): 26.6 ± 3.6%; ERK1/2‐phosphorylation % PDBu ([6]; CHO‐α1D cells, maximal response as % of PDBu): 30.0 ± 5.3%
Nc1cc(Cl)c(N=C2NCCN2)c(Cl)c1 [para‐amino‐clonidine]						26.6 ± 3.2	2.5 ± 0.6		52.0 ± 2.8	33.7 ± 2.4	No response	84.5 ± 4.9	32.8 ± 6.9	No response	Log KD α1A, ^3H‐prazosin whole cell binding (human α1A‐adrenoceptor [11]): −6.23 ± 0.03; Log KD α1B, ^3H‐prazosin whole cell binding (human α1B‐adrenoceptor [12]): −5.17 ± 0.06; Log KD, ^3H‐prazosin binding (human α1B‐adrenoceptor [12]): −5.17; 3H‐prazosin binding Log KD [13]: −5.39; Log KD α1D, ^3H‐prazosin whole cell binding [13]: −5.39 ± 0.16; Intracellular calcium release Log EC50 (human α1A‐adrenoceptor [1]): −8.70 ± 0.09; Intracellular calcium release Log EC50 (human α1B‐adrenoceptor [2]): −7.79 ± 0.05; Intracellular calcium release Log EC50 [3]: No response; cAMP accumulation Log EC50 (human α1A‐adrenoceptor [8]; 5 h): −6.76 ± 0.03; cAMP accumulation Log EC50 (human α1B‐adrenoceptor [9]): −7.48 ± 0.43; cAMP accumulation (in presence of forskolin) Log EC50 (human α1A‐adrenoceptor [14]; CHO‐α1A cells, 10 μM forskolin): −7.36 ± 0.05; cAMP accumulation (in presence of forskolin) Log EC50 (human α1B‐adrenoceptor [15]): −7.31 ± 0.11
c1ccc2c(c1)OCC(C1=NCCN1)O2 (stereo not drawn) [Idazoxan]	25.9 ± 2.1	25.7 ± 3.0	64.9 ± 2.4	31.3 ± 2.2	No response	2.6 ± 0.4	2.4 ± 0.3	No response							Intracellular calcium release % Ionomycin at 100 µM [3, 20]: 5.7 ± 0.7%; ERK1/2‐phosphorylation % PDBu at 100 µM [6, 20]: 2.2 ± 1.3%
CNCC(O)c1ccc(O)cc1 (stereo not drawn) [Synephrine]					No response			No response	55.4 ± 1.9	57.5 ± 1.9	16.3 ± 2.9%	87.4 ± 8.6	95.1 ± 8.7	14.5 ± 2.8%	Kd (human α1A‐adrenoceptor [11]): 55 µM; EC50 (human α1A‐adrenoceptor [1]): 0.219 µM; EC50 (human α1A‐adrenoceptor [4]): 0.603 µM; cAMP accumulation % forskolin at 100 µM (human α1A‐adrenoceptor [8]; response at 100 μM ligand, no EC50 obtained): 25.4 ± 3.4%; cAMP accumulation % forskolin at 100 µM (human α1B‐adrenoceptor [9]; response at 100 µM ligand (no EC50 given)): 23.2 ± 2.5%; EC50 (human α1A‐adrenoceptor [14]): 7.08 µM
